Source: US12077503B2, “Substituted cyclic amides and their use as herbicides” (FMC CORPORATION, priority 2015, dated 2024)

Legend:
Type in all cases: in vivo
[1] = test system: pigweed (Amaranthus retroflexus); experiment: Test A preemergence; details: Amaranthus retroflexus, pre-emergence, 240 h, Preemergence; for pest or weed control at 31 g/ha: 31 g ai/ha, 0 to 100 scale where 0 is no effect and 100 is complete control, read-out: Pigweed plant response rating; for pest or weed control at 125 g/ha: 125 g ai/ha, 0 to 100 scale (0 no effect, 100 complete control), read-out: Plant response rating, Pigweed
[2] = test system: ragweed (common ragweed, Ambrosia elatior); experiment: Test A preemergence; details: Ambrosia artemisiifolia, pre-emergence, 240 h, Preemergence; for pest or weed control at 31 g/ha: 31 g ai/ha, 0 to 100 scale where 0 is no effect and 100 is complete control, read-out: Ragweed plant response rating; for pest or weed control at 125 g/ha: 125 g ai/ha, 0 to 100 scale (0 no effect, 100 complete control), read-out: Plant response rating, Ragweed
Summary of the method: (§1)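 Seeded soil received test chemicals as a preemergence directed spray, and seedlings at one to two leaves, 2–10 cm tall, received them postemergence, in a non-phytotoxic, surfactant-containing solvent mixture. Pots were held in a greenhouse for approximately 10 d, then rated for injury from 0, no effect, to 100, complete control.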

[3] = test system: ryegrass, Italian (Italian ryegrass, Lolium multiflorum); experiment: Test A preemergence; details: Lolium multiflorum, pre-emergence, 240 h, Preemergence; for pest or weed control at 31 g/ha: 31 g ai/ha, 0 to 100 scale where 0 is no effect and 100 is complete control, read-out: Ryegrass, Italian plant response rating; for pest or weed control at 125 g/ha: 125 g ai/ha, 0 to 100 scale (0 no effect, 100 complete control), read-out: Plant response rating, Ryegrass, Italian
Summary of the method: as §1

[4] = test system: barnyardgrass (Echinochloa crus-galli); experiment: Test A preemergence; details: Echinochloa crus-galli, pre-emergence, 240 h, Preemergence; for pest or weed control at 31 g/ha: 31 g ai/ha, 0 to 100 scale where 0 is no effect and 100 is complete control, read-out: Barnyardgrass plant response rating; for pest or weed control at 125 g/ha: 125 g ai/ha, 0 to 100 scale (0 no effect, 100 complete control), read-out: Plant response rating, Barnyardgrass
Summary of the method: as §1

[5] = test system: giant foxtail (Setaria faberii); experiment: Test A preemergence; details: Setaria faberi, pre-emergence, 240 h, Preemergence; for pest or weed control at 31 g/ha: 31 g ai/ha, 0 to 100 scale where 0 is no effect and 100 is complete control, read-out: Foxtail, Giant plant response rating; for pest or weed control at 125 g/ha: 125 g ai/ha, 0 to 100 scale (0 no effect, 100 complete control), read-out: Plant response rating, Foxtail, Giant
Summary of the method: as §1

Kochia (Kochia scoparia) [6] = experiment: Test A preemergence; details: Bassia scoparia, pre-emergence, 240 h, Preemergence; for pest or weed control at 31 g/ha: 31 g ai/ha, 0 to 100 scale where 0 is no effect and 100 is complete control, read-out: Kochia plant response rating; for pest or weed control at 125 g/ha: 125 g ai/ha, 0 to 100 scale (0 no effect, 100 complete control), read-out: Plant response rating, Kochia
Summary of the method: as §1

[7] = test system: ducksalad (Heteranthera limosa); experiment: Test B flooded paddy test; details: Heteranthera limosa, 360 h, Flood, 250 g ai/ha; visually evaluated after 13 to 15 d; read-out: Plant response rating, Ducksalad (0 to 100 scale where 0 is no effect and 100 is complete control)
Summary of the method: (§2)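 Evaluation by eye, against controls, occurred 13–15 d post-treatment in a greenhouse, using a 0 (no effect) to 100 (complete control) scale. Application was into the paddy water, 3 cm deep over the soil, on 2-leaf plants.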

[8] = test system: sedge, umbrella (small-flower umbrella sedge, Cyperus difformis); experiment: Test B flooded paddy test; details: Cyperus difformis, 360 h, Flood, 250 g ai/ha; visually evaluated after 13 to 15 d; read-out: Plant response rating, Sedge, Umbrella (0 to 100 scale where 0 is no effect and 100 is complete control)
Summary of the method: as §2

rice (Oryra sativa) = experiment: Test B flooded paddy test; details: Oryza sativa, 360 h, Flood, 250 g ai/ha; visually evaluated after 13 to 15 d; read-out: Plant response rating, Rice (0 to 100 scale where 0 is no effect and 100 is complete control)
Summary of the method: as §2

[9] = test system: barnyardgrass (Echinochloa crus-galli); experiment: Test B flooded paddy test; details: Echinochloa crus-galli, 360 h, Flood, 250 g ai/ha; visually evaluated after 13 to 15 d; read-out: Plant response rating, Barnyardgrass (0 to 100 scale where 0 is no effect and 100 is complete control)
Summary of the method: as §2

[10] = test system: wheat (Triticum aestivum); experiment: Test A postemergence; details: Triticum aestivum, post-emergence, 240 h, Postemergence, read-out: Wheat plant response rating (0 to 100 scale); for plant injury at 125 g/ha: 125 g ai/ha, visual rating about 10 d after treatment; for plant injury at 31 g/ha: 31 g ai/ha, 0 is no effect, 100 is complete control
Summary of the method: as §1

[11] = test system: pigweed (Amaranthus retroflexus); experiment: Test A postemergence; details: Amaranthus retroflexus, post-emergence, 240 h, Postemergence, read-out: Pigweed plant response rating (0 to 100 scale); for pest or weed control at 125 g/ha: 125 g ai/ha, visual rating about 10 d after treatment; for pest or weed control at 31 g/ha: 31 g ai/ha, 0 is no effect, 100 is complete control
Summary of the method: as §1

[12] = test system: ragweed (common ragweed, Ambrosia elatior); experiment: Test A postemergence; details: Ambrosia artemisiifolia, post-emergence, 240 h, Postemergence, read-out: Ragweed plant response rating (0 to 100 scale); for pest or weed control at 125 g/ha: 125 g ai/ha, visual rating about 10 d after treatment; for pest or weed control at 31 g/ha: 31 g ai/ha, 0 is no effect, 100 is complete control
Summary of the method: as §1

[13] = test system: blackgrass (Alopecurus myosuroides); experiment: Test A postemergence; details: Alopecurus myosuroides, post-emergence, 240 h, Postemergence, read-out: Blackgrass plant response rating (0 to 100 scale); for pest or weed control at 125 g/ha: 125 g ai/ha, visual rating about 10 d after treatment; for pest or weed control at 31 g/ha: 31 g ai/ha, 0 is no effect, 100 is complete control
Summary of the method: as §1

[14] = test system: ryegrass, Italian (Italian ryegrass, Lolium multiflorum); experiment: Test A postemergence; details: Lolium multiflorum, post-emergence, 240 h, Postemergence, read-out: Ryegrass, Italian plant response rating (0 to 100 scale); for pest or weed control at 125 g/ha: 125 g ai/ha, visual rating about 10 d after treatment; for pest or weed control at 31 g/ha: 31 g ai/ha, 0 is no effect, 100 is complete control
Summary of the method: as §1

[15] = test system: barnyardgrass (Echinochloa crus-galli); experiment: Test A postemergence; details: Echinochloa crus-galli, post-emergence, 240 h, Postemergence; for pest or weed control at 125 g/ha: 125 g ai/ha, visual rating about 10 d after treatment, read-out: Barnyardgrass plant response rating (0 to 100 scale, 0 no effect, 100 complete control); for pest or weed control at 31 g/ha: 31 g ai/ha, 0 is no effect, 100 is complete control, read-out: Barnyardgrass plant response rating (0 to 100 scale)
Summary of the method: as §1

[16] = test system: Galium (catchweed bedstraw, Galium aparine); experiment: Test A postemergence; details: Galium, post-emergence, 240 h, Postemergence, read-out: Galium plant response rating (0 to 100 scale); for pest or weed control at 125 g/ha: 125 g ai/ha, visual rating about 10 d after treatment; for pest or weed control at 31 g/ha: 31 g ai/ha, 0 is no effect, 100 is complete control
Summary of the method: as §1

[17] = test system: giant foxtail (Setaria faberii); experiment: Test A postemergence; details: Setaria faberi, post-emergence, 240 h, Postemergence, read-out: Foxtail, Giant plant response rating (0 to 100 scale); for pest or weed control at 125 g/ha: 125 g ai/ha, visual rating about 10 d after treatment; for pest or weed control at 31 g/ha: 31 g ai/ha, 0 is no effect, 100 is complete control
Summary of the method: as §1

Kochia (Kochia scoparia) [18] = experiment: Test A postemergence; details: Bassia scoparia, post-emergence, 240 h, Postemergence, read-out: Kochia plant response rating (0 to 100 scale); for pest or weed control at 125 g/ha: 125 g ai/ha, visual rating about 10 d after treatment; for pest or weed control at 31 g/ha: 31 g ai/ha, 0 is no effect, 100 is complete control
Summary of the method: as §1

corn (Zea mays) = experiment: Test A postemergence; details: Zea mays, post-emergence, 240 h, Postemergence, read-out: Corn plant response rating (0 to 100 scale); for plant injury at 125 g/ha: 125 g ai/ha, visual rating about 10 d after treatment; for plant injury at 31 g/ha: 31 g ai/ha, 0 is no effect, 100 is complete control
Summary of the method: as §1

Structure (SMILES) | pest or weed control at 31 g/ha [1] | pest or weed control at 125 g/ha [1] | pest or weed control at 31 g/ha [2] | pest or weed control at 125 g/ha [2] | pest or weed control at 31 g/ha [3] | pest or weed control at 125 g/ha [3] | pest or weed control at 31 g/ha [4] | pest or weed control at 125 g/ha [4] | pest or weed control at 31 g/ha [5] | pest or weed control at 125 g/ha [5] | pest or weed control at 31 g/ha (Kochia (Kochia scoparia) [6]) | pest or weed control at 125 g/ha (Kochia (Kochia scoparia) [6]) | pest or weed control at 250 g/ha [7] | pest or weed control at 250 g/ha [8] | pest or weed control at 250 g/ha (rice (Oryra sativa)) | pest or weed control at 250 g/ha [9] | plant injury at 125 g/ha [10] | plant injury at 31 g/ha [10] | pest or weed control at 125 g/ha [11] | pest or weed control at 31 g/ha [11] | also measured
CC(C)=Cc1cc([C@H]2CN(C)C(=O)[C@@H]2C(=O)Nc2cccc(F)c2F)ccc1C(F)(F)F [Compound 1337] | 0% | 0% | 0% | 0% | 20% | 70% | 50% | 80% | 40% | 80% | 0% | 0% | 20% | 0% | 20% | 20% | 20% | 0% | 20% | 0% | pest or weed control at 125 g/ha [12]: 0%; pest or weed control at 31 g/ha [12]: 0%; pest or weed control at 125 g/ha [13]: 0%; pest or weed control at 31 g/ha [13]: 0%; pest or weed control at 125 g/ha [14]: 20%; pest or weed control at 31 g/ha [14]: 0%; pest or weed control at 125 g/ha [15]: 30%; pest or weed control at 31 g/ha [15]: 20%; pest or weed control at 125 g/ha [16]: 0%; pest or weed control at 31 g/ha [16]: 0%; pest or weed control at 125 g/ha [17]: 40%; pest or weed control at 31 g/ha [17]: 20%; pest or weed control at 125 g/ha (Kochia (Kochia scoparia) [18]): 20%; pest or weed control at 31 g/ha (Kochia (Kochia scoparia) [18]): 20%; plant injury at 125 g/ha (corn (Zea mays)): 0%; plant injury at 31 g/ha (corn (Zea mays)): 0%
COc1c([C@H]2CN(C)C(=O)[C@@H]2C(=O)Nc2ccccc2F)cccc1C(F)(F)F [Compound 1338] | 0% | 0% | 0% | 0% | 0% | 0% | 90% | 100% | 80% | 90% | 0% | 0% | 100% | 0% | 25% | 90% | 0% | 0% | 0% | 0% | pest or weed control at 125 g/ha [12]: 0%; pest or weed control at 31 g/ha [12]: 0%; pest or weed control at 125 g/ha [13]: 0%; pest or weed control at 31 g/ha [13]: 0%; pest or weed control at 125 g/ha [14]: 0%; pest or weed control at 31 g/ha [14]: 0%; pest or weed control at 125 g/ha [15]: 80%; pest or weed control at 31 g/ha [15]: 70%; pest or weed control at 125 g/ha [16]: 30%; pest or weed control at 31 g/ha [16]: 0%; pest or weed control at 125 g/ha [17]: 80%; pest or weed control at 31 g/ha [17]: 50%; pest or weed control at 125 g/ha (Kochia (Kochia scoparia) [18]): 0%; pest or weed control at 31 g/ha (Kochia (Kochia scoparia) [18]): 0%; plant injury at 125 g/ha (corn (Zea mays)): 0%; plant injury at 31 g/ha (corn (Zea mays)): 0%
